Measurements: ChEMBL document CHEMBL1201862, “PubChem BioAssay data set” (2004)
Calls of active or inactive are those of the source. Rule as the data show it, for most assays here: actives have a measured EC50 and inactives only a lower limit.

Columns and labels:
[1] = molecular target: FAD-linked sulfhydryl oxidase ALR (Homo sapiens, UniProt P55789); assay: inhibitors of human ALR sulfhydryl oxidase, dose response, biochemical, H2O2 detection, luminescence, cherry-pick (AID 493248)
[2] = Luminescence Cell-Based Dose Confirmation HTS to Identify Inhibitors of Platelet Dense Granule Release. [Related pubchem assays: 1663 (Primary HTS), 1678 (Summary of Project)]; type: functional
[3] = molecular target: Luciferin 4-monooxygenase (Photinus pyralis, UniProt P08659); assay: firefly luciferase enzyme inhibitors, dose response, biochemical, luminescence (AID 1891)
Luciferin 4-monooxygenase, sequence (P08659 whole entry): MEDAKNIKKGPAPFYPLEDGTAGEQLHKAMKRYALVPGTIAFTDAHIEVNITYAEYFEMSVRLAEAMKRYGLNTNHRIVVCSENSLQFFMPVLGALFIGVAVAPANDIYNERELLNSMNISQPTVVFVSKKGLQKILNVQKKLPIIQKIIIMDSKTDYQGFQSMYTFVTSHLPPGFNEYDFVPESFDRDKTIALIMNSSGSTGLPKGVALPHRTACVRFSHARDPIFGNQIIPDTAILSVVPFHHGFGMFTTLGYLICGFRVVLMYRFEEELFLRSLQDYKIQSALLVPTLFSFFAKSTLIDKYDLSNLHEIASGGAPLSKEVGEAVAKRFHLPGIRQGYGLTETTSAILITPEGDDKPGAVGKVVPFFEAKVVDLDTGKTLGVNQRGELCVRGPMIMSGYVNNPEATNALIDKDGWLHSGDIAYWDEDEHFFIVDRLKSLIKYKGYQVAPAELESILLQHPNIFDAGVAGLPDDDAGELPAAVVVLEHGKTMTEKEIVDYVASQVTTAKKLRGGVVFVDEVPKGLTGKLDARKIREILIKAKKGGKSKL

[4] = Luminescence Cell-Based Dose Confirmation HTS to Identify Activators of 5'UTR Stem-Loop Driven Alpha-Synuclein mRNA Translation in H4 Neuroglioblastoma Cells. [Related pubchem assays: 1829 (Project Summary), 1814 (Primary HTS)]; type: functional
[5] = Luminescence Cell-Based Dose Response HTS to Identify Activators of Luciferase Translation or Activity in H4 […] Cells. [Related pubchem assays: 1829 (Project Summary), 1814 (Primary HTS)]; type: functional
[6] = C. albicans growth with fluconazole, confirmation, fluorescence, retest (AID 2467); type: functional, cell-based
[7] = system: H4; assay: Luminescence Cell-Based Dose Response HTS to Identify Activators of 5'UTR Stem-Loop Driven Prion Protein mRNA Translation in H4 Neuroglioblastoma Cells. [Related pubchem assays: 1829 (Project Summary), 1814 (Primary HTS)]; type: functional; details: Homo sapiens
[8] = NIH-3T3 fibroblast cytotoxicity, dose response, cytotoxicity control, cell-based, fluorescence, Alamar Blue, secondary assay (AID 2327); type: functional;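 also: NIH-3T3 mouse fibroblasts cultured with fluconazole at 8 µg/mL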
[9] = molecular target: T1, Corticotropin-releasing factor receptor 2/Corticotropin-releasing factor-binding protein (Homo sapiens, UniProt P24387+Q13324); assay: activators of CRF receptor 2 with binding protein – uHTS hits, confirmation (AID 602473); type: functional; details: read-out: EC50_Mean
T1 sequence (Q13324 whole entry): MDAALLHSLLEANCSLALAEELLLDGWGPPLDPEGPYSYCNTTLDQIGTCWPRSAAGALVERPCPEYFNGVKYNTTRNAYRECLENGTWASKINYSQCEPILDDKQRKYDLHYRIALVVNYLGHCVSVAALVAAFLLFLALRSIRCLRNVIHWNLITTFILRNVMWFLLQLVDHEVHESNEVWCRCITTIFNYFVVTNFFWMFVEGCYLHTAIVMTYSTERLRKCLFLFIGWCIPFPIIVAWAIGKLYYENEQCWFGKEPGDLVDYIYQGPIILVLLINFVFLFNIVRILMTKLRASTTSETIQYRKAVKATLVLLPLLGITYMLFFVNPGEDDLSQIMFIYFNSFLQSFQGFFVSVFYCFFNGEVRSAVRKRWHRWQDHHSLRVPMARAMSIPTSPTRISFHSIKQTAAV
T1 sequence (P24387 whole entry): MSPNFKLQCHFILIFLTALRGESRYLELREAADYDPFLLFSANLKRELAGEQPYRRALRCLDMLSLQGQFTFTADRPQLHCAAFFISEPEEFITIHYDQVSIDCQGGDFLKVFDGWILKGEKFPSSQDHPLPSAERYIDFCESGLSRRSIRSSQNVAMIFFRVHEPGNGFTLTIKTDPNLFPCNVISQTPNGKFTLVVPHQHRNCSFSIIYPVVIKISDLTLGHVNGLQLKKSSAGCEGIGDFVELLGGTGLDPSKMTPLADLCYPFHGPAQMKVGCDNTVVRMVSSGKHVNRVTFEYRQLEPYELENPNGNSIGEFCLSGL

[10] = molecular target: T1, Corticotropin-releasing factor receptor 2/Corticotropin-releasing factor-binding protein; assay: Dose Response confirmation of uHTS hits for small molecule antagonists of the CRF-binding protein and CRF-R2 receptor complex.; type: functional; details: read-out: IC50_Mean
[11] = cytotoxicity toward DRD oncogenic fibroblasts, dose response, cell-based, non-viral oncogenic, luminescence (AID 1934); type: functional; details: Homo sapiens
[12] = system: BJ; assay: cytotoxicity toward BJ-TERT fibroblasts, dose response, cell-based, RAS-independent, luminescence (AID 1933); type: functional; details: Homo sapiens
[13] = system: BJ; assay: cytotoxicity toward BJ-TERT-LT-ST fibroblasts, dose response, cell-based, RAS-independent, luminescence (AID 1935); type: functional; details: Homo sapiens;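 also: BJ fibroblasts immortalized with TERT plus LT and ST oncogenes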
[14] = system: BJ; assay: cells; type: functional, cell-based; details: Homo sapiens
[15] = molecular target: T2, Protein skinhead-1 (Caenorhabditis elegans, UniProt P34707); type: functional
T2 sequence (P34707 whole entry): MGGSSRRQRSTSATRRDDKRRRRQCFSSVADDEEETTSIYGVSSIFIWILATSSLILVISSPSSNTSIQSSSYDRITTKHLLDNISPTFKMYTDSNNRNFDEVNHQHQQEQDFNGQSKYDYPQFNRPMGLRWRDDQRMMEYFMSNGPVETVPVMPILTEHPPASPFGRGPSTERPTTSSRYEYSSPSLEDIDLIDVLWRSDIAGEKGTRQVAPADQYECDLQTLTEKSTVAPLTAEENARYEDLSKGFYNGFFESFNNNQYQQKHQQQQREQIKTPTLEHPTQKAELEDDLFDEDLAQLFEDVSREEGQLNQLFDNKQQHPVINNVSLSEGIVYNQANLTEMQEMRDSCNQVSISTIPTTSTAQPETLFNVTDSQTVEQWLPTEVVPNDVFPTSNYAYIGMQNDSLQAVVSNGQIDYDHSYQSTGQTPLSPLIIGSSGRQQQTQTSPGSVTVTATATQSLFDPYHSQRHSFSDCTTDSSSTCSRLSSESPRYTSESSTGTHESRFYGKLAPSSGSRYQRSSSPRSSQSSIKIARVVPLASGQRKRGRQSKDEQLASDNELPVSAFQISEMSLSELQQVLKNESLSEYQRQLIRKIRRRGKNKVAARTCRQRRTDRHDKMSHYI

[16] = system: Streptococcus sp. 'group A'; assay: growth inhibition of control SK(-) GAS strain, dose response, counter-screen for streptokinase expression inhibitor project, luminescence, kanamycin, BacTiterGlo, confirmation (AID 1900); type: functional, organism-based
[17] = molecular target: T3, Streptokinase A (Streptococcus pyogenes serotype M1, UniProt P10520); assay: S. pyogenes streptokinase expression inhibitors, potency, dose response, plasminogen activation absorbance, OD405 (AID 1914); type: functional, Streptococcus pyogenes M1 GAS;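 also: secreted streptokinase activity via plasminogen activation per viability signal from cell pellet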
T3 sequence (P10520 whole entry): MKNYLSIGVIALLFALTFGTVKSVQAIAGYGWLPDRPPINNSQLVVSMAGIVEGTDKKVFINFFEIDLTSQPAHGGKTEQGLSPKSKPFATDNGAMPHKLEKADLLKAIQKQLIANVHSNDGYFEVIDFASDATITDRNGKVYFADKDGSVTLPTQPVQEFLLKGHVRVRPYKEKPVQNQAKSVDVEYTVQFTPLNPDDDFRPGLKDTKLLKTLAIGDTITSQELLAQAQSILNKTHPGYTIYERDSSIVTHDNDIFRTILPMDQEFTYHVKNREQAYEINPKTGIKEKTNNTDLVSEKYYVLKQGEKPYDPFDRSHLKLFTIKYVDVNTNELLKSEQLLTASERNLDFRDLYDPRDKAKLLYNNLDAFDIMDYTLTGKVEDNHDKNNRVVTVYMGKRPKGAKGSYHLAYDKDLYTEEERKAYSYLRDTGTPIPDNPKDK

[18] = system: Streptococcus; assay: Group A Streptococcus viability loss, dose response, counter-screen for streptokinase expression inhibitor project, luminescence, BacTiterGlo (AID 1915); type: functional, organism-based;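 also: potency for reduction of bacterial viability or growth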
[19] = molecular target: T4, Zinc finger protein mex-5 (Caenorhabditis elegans, UniProt Q9XUB2); assay: MEX-5/TCR-2 RNA interaction inhibitors, dose response, biochemical, C. elegans, fluorescence polarization (AID 1960)
T4 sequence (Q9XUB2 whole entry): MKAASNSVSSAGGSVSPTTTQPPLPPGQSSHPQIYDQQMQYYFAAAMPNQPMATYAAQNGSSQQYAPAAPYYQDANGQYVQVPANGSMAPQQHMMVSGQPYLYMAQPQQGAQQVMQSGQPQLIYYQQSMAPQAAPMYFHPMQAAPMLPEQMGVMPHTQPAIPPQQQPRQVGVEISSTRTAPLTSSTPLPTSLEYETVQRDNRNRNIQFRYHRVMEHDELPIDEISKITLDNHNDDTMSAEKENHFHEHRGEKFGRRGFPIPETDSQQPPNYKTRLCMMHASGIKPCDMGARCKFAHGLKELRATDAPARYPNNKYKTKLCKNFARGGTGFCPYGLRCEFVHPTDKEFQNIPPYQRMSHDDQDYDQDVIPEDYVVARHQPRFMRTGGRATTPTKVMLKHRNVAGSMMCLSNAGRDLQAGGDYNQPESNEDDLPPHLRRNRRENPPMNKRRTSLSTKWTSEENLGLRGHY

[20] = molecular target: T5, RNA-binding protein pos-1 (Caenorhabditis elegans, UniProt G5EF15); assay: inhibitors of POS-1/mex-3 RNA binding, dose response, biochemical, fluorescence polarization (AID 1964);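 also: purified POS-1 fused to maltose binding protein made in E. coli; potency of compounds blocking POS-1 binding to fluorescent RNA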
T5 sequence (G5EF15 whole entry): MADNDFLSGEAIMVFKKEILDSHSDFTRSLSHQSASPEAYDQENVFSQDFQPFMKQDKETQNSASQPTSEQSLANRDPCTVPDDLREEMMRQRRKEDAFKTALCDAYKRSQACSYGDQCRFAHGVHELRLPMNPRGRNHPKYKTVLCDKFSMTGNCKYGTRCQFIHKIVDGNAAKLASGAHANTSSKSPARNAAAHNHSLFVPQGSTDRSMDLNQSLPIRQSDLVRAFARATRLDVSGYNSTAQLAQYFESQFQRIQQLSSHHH

[21] = P. falciparum Dd2 growth inhibitors, dose response, SYBR Green, cherry-picked samples (AID 1159567); type: functional, cell-based

FAD-linked sulfhydryl oxidase ALR, sequence (P55789 whole entry): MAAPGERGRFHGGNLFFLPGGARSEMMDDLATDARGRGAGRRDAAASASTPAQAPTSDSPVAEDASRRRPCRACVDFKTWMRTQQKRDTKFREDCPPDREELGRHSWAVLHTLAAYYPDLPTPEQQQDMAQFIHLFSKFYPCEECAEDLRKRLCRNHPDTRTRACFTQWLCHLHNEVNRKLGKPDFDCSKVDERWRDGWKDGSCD

O=C(NNS(=O)(=O)c1ccc(F)cc1)c1cc2ccccc2cc1O
AC50 [1]: 4.07 µM (active)

COc1ccccc1NC(=O)c1cc([N+](=O)[O-])ccc1N1CCOCC1
EC50 [2]: > 112 µM (not active) | EC50 [3]: > 112 µM (not active)

COc1ccc(N2CCN(C(=O)c3ccc(SC)cc3OC)CC2)cc1
AC50 [1]: 6.05 µM (active)

c1ccc(CN2CCc3nc4ccccc4cc3C2)cc1
EC50 [4]: 215 nM (active) | EC50 [5]: 33.8 µM (active) | EC50 [6]: > 38 µM (not active) | EC50 [7]: 52.7 µM (active) | EC50 [8]: > 160 µM (inconclusive)

CCOc1ccc(NC(=O)CCNS(=O)(=O)c2cccc3nonc23)cc1
EC50 [9]: > 53 µM (inactive) | IC50 [10]: > 47.1 µM (inactive)

CCCC(=O)Nc1ccc2c(c1)nc(CN1CCN(C(=O)OCC)CC1)n2CC
EC50 [11]: 18 µM (active) | EC50 [12]: 15.4 µM (inconclusive) | EC50 [13]: > 75 µM (inconclusive) | EC50 [14]: 122 µM (active)

CCOC(=O)c1sc(NN=C2C(=O)CC(C)(C)CC2=O)c(C(=O)OCC)c1C
EC50 [2]: 20.4 µM (active) | EC50 [3]: > 112 µM (not active)

COc1ccc(-c2cc(C(F)F)n3ncc(C(=O)n4ccnc4C)c3n2)cc1
EC50 [11]: 7.6 µM (active) | EC50 [12]: 7.36 µM (inconclusive) | EC50 [13]: > 150 µM (inconclusive) | EC50 [14]: 15.3 µM (active)

COc1ccc(NC(=O)c2cn(CCC#N)nc2-c2ccc([N+](=O)[O-])cc2)cc1
EC50 [11]: > 150 µM (not active) | EC50 [12]: > 150 µM (not active) | EC50 [13]: > 150 µM (not active) | EC50 [14]: > 150 µM (not active)

c1ccc(-c2cc3nccc(-c4ccccn4)n3n2)cc1
EC50 [9]: > 53 µM (inactive) | IC50 [15]: 47 µM (active) | IC50 [10]: > 47.1 µM (inactive)

COc1ccccc1NC1=NC(=O)/C(=C/c2ccc(N(C)C)cc2)S1
EC50 [11]: 1.45 µM (active) | EC50 [16]: 15.1 µM (active) | EC50 [12]: 1.91 µM (active) | EC50 [13]: 64.2 µM (inconclusive) | EC50 [14]: 59 µM (active) | EC50 [17]: > 150 µM (not active) | EC50 [18]: 46.7 µM (active)

Cn1cc(S(=O)(=O)N2CCCC2)cc1C(=O)N1CCN(c2cccc(Cl)c2)CC1
EC50 [2]: > 112 µM (not active) | EC50 [3]: > 112 µM (not active)

Cn1c(=O)n(C)c2cc(S(=O)(=O)NCc3ccccc3)ccc21
EC50 [2]: > 112 µM (not active) | EC50 [3]: > 112 µM (not active)

O=C(NN=C1CCCC1)c1cc(-c2ccccc2)[nH]n1
AC50 [1]: 16.9 µM (active)

O=C(Cc1ccccc1)Nc1nonc1NC(=O)c1ccccc1
EC50 [6]: 3.18 µM (active) | EC50 [8]: > 150 µM (inactive)

CC(OC(=O)c1ccc(-c2ccc(O)cc2)cc1)C(=O)NC1CCCCC1C (stereo not drawn)
EC50 [9]: > 53 µM (inactive) | IC50 [10]: > 47.1 µM (inactive)

O=C(Nc1ccc(F)cc1)Nc1ccccc1F
EC50 [2]: 12.1 µM (active) | EC50 [3]: 6.85 µM (active)

COC(=O)C1=C(C)N=C2SC(C#N)=C(N)N2C1c1cccc(OC)c1 (stereo not drawn)
EC50 [19]: > 300 µM (not active) | EC50 [2]: > 112 µM (not active) | EC50 [3]: > 112 µM (not active) | EC50 [20]: > 300 µM (not active)

CC1(CCC(=O)N2CCCC(Nc3ccc(F)cc3)C2)CC1 (stereo not drawn)
AC50 [1]: 5.27 µM (active)

Cc1ccc(NC2CCCN(C(=O)c3cn4cccc(C)c4n3)C2)cc1C (stereo not drawn)
AC50 [1]: 9.91 µM (active)

COc1ccc(C(=O)Nc2ccccc2C(=O)N/N=C/c2ccccc2OC)cc1
EC50 [2]: 1.11 µM (active) | EC50 [3]: 0.286 µM (active)

COc1ccc(C(=O)Nc2ccccc2C(=O)N/N=C/c2ccco2)cc1
EC50 [2]: 4.14 µM (active) | EC50 [3]: 0.329 µM (active)

Cc1ccc(-n2nc(C)c(/C=N/c3ccc(S(=O)(=O)Nc4nccs4)cc3)c2O)cc1
EC50 [11]: 24 µM (active) | EC50 [12]: 12.8 µM (active) | EC50 [13]: > 150 µM (not active) | EC50 [14]: > 150 µM (not active)

CC(C)(O)C#Cc1ccc([C@H]2[C@H](CO)N3CCCCN(C(=O)c4ccc(F)cc4)C[C@@H]23)cc1
AC50 [21]: 15.3 µM (active)

COc1cccc(CN2CC3(CN(Cc4ccccn4)C3)c3c([nH]c4cc(OC)ccc34)[C@H]2CO)c1
AC50 [21]: 5.33 µM (active)

CN(C)c1ccc2c(c1)[C@@H]1C[C@H](CC(=O)N3CCc4ccccc4C3)O[C@@H](CO)[C@@H]1O2
AC50 [21]: 7.8 µM (active)
